Measured values reported in the NIST ThermoML archive (doi:10.1021/je5009679).
± gives the expanded uncertainty stated by the source.

Conditions: Liquid; for viscosity: Concentric cylinders viscometry

CC(=O)[O-].CCCCn1cc[n+](C)c1 [1-butyl-3-methylimidazolium acetate]
101.33 kPa
Conditions	viscosity [mPa·s]
293.15 K	592.3 ± 33
303.15 K	274.1 ± 14
313.15 K	142.4 ± 6.9
323.15 K	81.88 ± 3.9
333.15 K	51.11 ± 2.4
343.15 K	33.65 ± 1.6
353.15 K	23.51 ± 1.1
363.15 K	17.09 ± 0.8
373.15 K	12.93 ± 0.6

Conditions	mass density [kg/m3]
293.15 K, 101.33 kPa, Vibrating tube method	1053.8 ± 1
303.15 K, 101.33 kPa, Vibrating tube method	1047.4 ± 1
311.4 K, 10000 kPa, Bellows volumetry	1046.7 ± 1.4
311.4 K, 20000 kPa, Bellows volumetry	1050.8 ± 1.4
311.4 K, 30000 kPa, Bellows volumetry	1054.8 ± 1.4
311.4 K, 40000 kPa, Bellows volumetry	1058.6 ± 1.4
311.4 K, 50000 kPa, Bellows volumetry	1062.3 ± 1.4
311.4 K, 60000 kPa, Bellows volumetry	1065.8 ± 1.4
311.4 K, 70000 kPa, Bellows volumetry	1069.3 ± 1.4
311.4 K, 80000 kPa, Bellows volumetry	1072.7 ± 1.4
311.4 K, 90000 kPa, Bellows volumetry	1076 ± 1.4
311.4 K, 100000 kPa, Bellows volumetry	1079 ± 1.4
311.4 K, 110000 kPa, Bellows volumetry	1082.1 ± 1.4
311.4 K, 120000 kPa, Bellows volumetry	1085.1 ± 1.4
311.4 K, 130000 kPa, Bellows volumetry	1088.1 ± 1.4
311.4 K, 140000 kPa, Bellows volumetry	1090.9 ± 1.4
311.4 K, 150000 kPa, Bellows volumetry	1093.7 ± 1.4
311.4 K, 160000 kPa, Bellows volumetry	1096.5 ± 1.4
311.4 K, 170000 kPa, Bellows volumetry	1099.1 ± 1.4
311.4 K, 180000 kPa, Bellows volumetry	1101.9 ± 1.4
311.4 K, 190000 kPa, Bellows volumetry	1104.5 ± 1.4
311.4 K, 200000 kPa, Bellows volumetry	1107.1 ± 1.4
313.15 K, 101.33 kPa, Vibrating tube method	1041.4 ± 1
323.15 K, 101.33 kPa, Vibrating tube method	1035.4 ± 1
331.1 K, 10000 kPa, Bellows volumetry	1034.7 ± 1.4
331.1 K, 20000 kPa, Bellows volumetry	1039.1 ± 1.4
331.1 K, 30000 kPa, Bellows volumetry	1043.3 ± 1.4
331.1 K, 40000 kPa, Bellows volumetry	1047.3 ± 1.4
331.1 K, 50000 kPa, Bellows volumetry	1051.2 ± 1.4
331.1 K, 60000 kPa, Bellows volumetry	1054.9 ± 1.4
331.1 K, 70000 kPa, Bellows volumetry	1058.5 ± 1.4
331.1 K, 80000 kPa, Bellows volumetry	1062.1 ± 1.4
331.1 K, 90000 kPa, Bellows volumetry	1065.2 ± 1.4
331.1 K, 100000 kPa, Bellows volumetry	1068.7 ± 1.4
331.1 K, 110000 kPa, Bellows volumetry	1071.9 ± 1.4
331.1 K, 120000 kPa, Bellows volumetry	1075 ± 1.4
331.1 K, 130000 kPa, Bellows volumetry	1078.2 ± 1.4
331.1 K, 140000 kPa, Bellows volumetry	1081.1 ± 1.4
331.1 K, 150000 kPa, Bellows volumetry	1084 ± 1.4
331.1 K, 160000 kPa, Bellows volumetry	1086.8 ± 1.4
331.1 K, 170000 kPa, Bellows volumetry	1089.6 ± 1.4
331.1 K, 180000 kPa, Bellows volumetry	1092.4 ± 1.4
331.1 K, 190000 kPa, Bellows volumetry	1095.1 ± 1.4
331.1 K, 200000 kPa, Bellows volumetry	1097.7 ± 1.4
333.15 K, 101.33 kPa, Vibrating tube method	1029.5 ± 1
343.15 K, 101.33 kPa, Vibrating tube method	1023.7 ± 1
351.3 K, 10000 kPa, Bellows volumetry	1023.2 ± 1.4
351.3 K, 20000 kPa, Bellows volumetry	1027.7 ± 1.4
351.3 K, 30000 kPa, Bellows volumetry	1032.1 ± 1.4
351.3 K, 40000 kPa, Bellows volumetry	1036.4 ± 1.4
351.3 K, 50000 kPa, Bellows volumetry	1040.4 ± 1.4
351.3 K, 60000 kPa, Bellows volumetry	1044.3 ± 1.4
351.3 K, 70000 kPa, Bellows volumetry	1048 ± 1.4
351.3 K, 80000 kPa, Bellows volumetry	1051.6 ± 1.4
351.3 K, 90000 kPa, Bellows volumetry	1055 ± 1.4
351.3 K, 100000 kPa, Bellows volumetry	1058.4 ± 1.4
351.3 K, 110000 kPa, Bellows volumetry	1061.7 ± 1.4
351.3 K, 120000 kPa, Bellows volumetry	1065 ± 1.4
351.3 K, 130000 kPa, Bellows volumetry	1068.1 ± 1.4
351.3 K, 140000 kPa, Bellows volumetry	1071.2 ± 1.4
351.3 K, 150000 kPa, Bellows volumetry	1074.3 ± 1.4
351.3 K, 160000 kPa, Bellows volumetry	1077.3 ± 1.4
351.3 K, 170000 kPa, Bellows volumetry	1080.2 ± 1.4
351.3 K, 180000 kPa, Bellows volumetry	1083 ± 1.4
351.3 K, 190000 kPa, Bellows volumetry	1086 ± 1.4
351.3 K, 200000 kPa, Bellows volumetry	1088.5 ± 1.4
353.15 K, 101.33 kPa, Vibrating tube method	1017.9 ± 1
363.15 K, 101.33 kPa, Vibrating tube method	1012 ± 1
371.3 K, 10000 kPa, Bellows volumetry	1011.7 ± 1.4
371.3 K, 20000 kPa, Bellows volumetry	1016.5 ± 1.4
371.3 K, 30000 kPa, Bellows volumetry	1021.2 ± 1.4
371.3 K, 40000 kPa, Bellows volumetry	1025.5 ± 1.4
371.3 K, 50000 kPa, Bellows volumetry	1029.6 ± 1.4
371.3 K, 60000 kPa, Bellows volumetry	1033.8 ± 1.4
371.3 K, 70000 kPa, Bellows volumetry	1037.7 ± 1.4
371.3 K, 80000 kPa, Bellows volumetry	1041.5 ± 1.4
371.3 K, 90000 kPa, Bellows volumetry	1045 ± 1.4
371.3 K, 100000 kPa, Bellows volumetry	1048.5 ± 1.4
371.3 K, 110000 kPa, Bellows volumetry	1051.9 ± 1.4
371.3 K, 120000 kPa, Bellows volumetry	1055.3 ± 1.4
371.3 K, 130000 kPa, Bellows volumetry	1058.6 ± 1.4
371.3 K, 140000 kPa, Bellows volumetry	1061.8 ± 1.4
371.3 K, 150000 kPa, Bellows volumetry	1064.9 ± 1.4
371.3 K, 160000 kPa, Bellows volumetry	1067.8 ± 1.4
371.3 K, 170000 kPa, Bellows volumetry	1071 ± 1.4
371.3 K, 180000 kPa, Bellows volumetry	1073.9 ± 1.4
371.3 K, 190000 kPa, Bellows volumetry	1076.8 ± 1.4
371.3 K, 200000 kPa, Bellows volumetry	1079.5 ± 1.4
373.15 K, 101.33 kPa, Vibrating tube method	1006.1 ± 1
